According to patent US9067914B1, “Tropomyosin-related kinase (TRK) inhibitors” (Genzyme Corporation, priority 2013, dated 2015):

Columns and labels:
[1] = biological target: TrkB (Homo sapiens (Human), UniProt Q16620); assay: TrkB activity, off-chip mobility shift assay (LabChip 3000); type: biochemical; settings: 70 μM ATP (ATP Km); n/d = none detected
Text: (§1) Reagents and consumables were purchased from Sigma Aldrich, Carna Biosciences, or Caliper Life Sciences. All assay reaction conditions for IC50 determinations were within the linear range with respect to time and enzyme concentration. […] The LabChip 3000 separates and measures the fluorescent signal of fluorescein labeled peptide substrate and fluorescein labeled peptide product present in each well. Results are expressed as percent conversion by measuring peak height for both the substrate and product and dividing the product peak height by the sum of peak heights for both substrate and product.

[2] = biological target: TrkA (Homo sapiens (Human), UniProt P04629); assay: TrkA activity, off-chip mobility shift assay (LabChip 3000); type: biochemical; settings: 55 μM ATP (ATP Km); n/d = none detected
Text: as §1

Chain of TrkB (Q16620 32-822): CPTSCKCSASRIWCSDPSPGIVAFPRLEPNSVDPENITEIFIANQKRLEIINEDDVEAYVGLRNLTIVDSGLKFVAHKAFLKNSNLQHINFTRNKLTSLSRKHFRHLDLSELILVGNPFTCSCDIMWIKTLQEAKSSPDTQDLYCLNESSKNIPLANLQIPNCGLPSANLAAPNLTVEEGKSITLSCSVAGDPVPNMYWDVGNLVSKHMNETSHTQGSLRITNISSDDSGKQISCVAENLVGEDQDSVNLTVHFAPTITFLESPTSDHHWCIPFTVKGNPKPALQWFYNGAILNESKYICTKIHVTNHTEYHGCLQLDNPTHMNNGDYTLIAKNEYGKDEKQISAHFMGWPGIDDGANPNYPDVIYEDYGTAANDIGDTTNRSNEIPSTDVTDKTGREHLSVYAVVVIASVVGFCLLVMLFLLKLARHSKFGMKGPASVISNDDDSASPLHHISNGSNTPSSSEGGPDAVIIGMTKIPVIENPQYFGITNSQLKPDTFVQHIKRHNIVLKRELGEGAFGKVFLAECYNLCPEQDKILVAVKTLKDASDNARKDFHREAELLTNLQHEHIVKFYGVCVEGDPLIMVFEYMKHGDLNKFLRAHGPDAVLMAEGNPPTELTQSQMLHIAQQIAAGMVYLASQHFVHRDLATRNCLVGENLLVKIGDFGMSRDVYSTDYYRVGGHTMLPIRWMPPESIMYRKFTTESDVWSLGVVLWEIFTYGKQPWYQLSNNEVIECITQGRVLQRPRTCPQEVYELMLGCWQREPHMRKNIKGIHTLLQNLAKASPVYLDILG
Chain of TrkA (P04629 33-796): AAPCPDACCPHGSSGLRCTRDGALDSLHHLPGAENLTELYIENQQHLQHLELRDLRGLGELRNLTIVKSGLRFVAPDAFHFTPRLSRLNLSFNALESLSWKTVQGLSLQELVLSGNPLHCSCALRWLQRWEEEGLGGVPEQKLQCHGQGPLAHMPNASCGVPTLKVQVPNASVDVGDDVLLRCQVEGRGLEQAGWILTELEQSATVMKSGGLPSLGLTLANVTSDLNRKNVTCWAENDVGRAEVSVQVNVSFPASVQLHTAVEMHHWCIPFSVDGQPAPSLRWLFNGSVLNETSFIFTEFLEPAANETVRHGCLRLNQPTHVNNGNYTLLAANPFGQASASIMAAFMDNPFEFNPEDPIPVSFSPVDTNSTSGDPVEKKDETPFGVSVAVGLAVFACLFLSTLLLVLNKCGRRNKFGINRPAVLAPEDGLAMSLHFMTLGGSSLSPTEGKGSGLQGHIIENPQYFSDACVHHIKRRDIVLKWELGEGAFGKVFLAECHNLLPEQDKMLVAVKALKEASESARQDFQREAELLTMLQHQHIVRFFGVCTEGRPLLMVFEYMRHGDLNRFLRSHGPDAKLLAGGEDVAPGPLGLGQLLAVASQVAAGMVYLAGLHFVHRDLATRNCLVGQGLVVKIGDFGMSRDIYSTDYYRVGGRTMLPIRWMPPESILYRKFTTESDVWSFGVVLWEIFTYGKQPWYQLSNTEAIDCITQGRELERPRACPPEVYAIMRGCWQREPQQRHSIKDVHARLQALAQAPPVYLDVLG

Row | SMILES | IC50 [1] [µM] | IC50 [2] [µM]
1 | COc1ccc(COc2ccc(Cn3cnc4cc(N5CCC[C@H]5C(=O)O)cnc43)cc2OC)cn1 [Ex. 3-18-7, (S)-1-(3-(3-Methoxy-4-((6-methoxypyridin-3-yl)methoxy)benzyl)-3H-imidazo[4,5-b]pyridin-6-yl)pyrrolidine-2-carboxylic acid] | 0.013 | 0.008
2 | COc1ccc(COc2ccc(Cn3cnc4cc(-c5cnn(C6CCNCC6)c5)cnc43)cc2OC)cn1 [Ex. 3-19, 3-(3-Methoxy-4-((6-methoxypyridin-3-yl)methoxy)benzyl)-6-(1-(piperidin-4-yl)-1H-pyrazol-4-yl)-3H-imidazo[4,5-b]pyridine] | 0.0009 | 0.001
3 | COc1cc(Cn2cnc3cc(-c4cnn(C5CCNCC5)c4)cnc32)ccc1OCc1ccc(C)nc1 [Ex. 3-20, 3-(3-Methoxy-4-((6-methylpyridin-3-yl)methoxy)benzyl)-6-(1-(piperidin-4-yl)-1H-pyrazol-4-yl)-3H-imidazo[4,5-b]pyridine] | 0.0006 | 0.0009
4 | COc1ccc(COc2ccc(Cn3cnc4cc(-c5noc(C6CCNCC6)n5)cnc43)cc2OC)cn1 [Ex. 3-21, 3-(3-(3-Methoxy-4-((6-methoxypyridin-3-yl)methoxy)benzyl)-3H-imidazo[4,5-b]pyridin-6-yl)-5-(piperidin-4-yl)-1,2,4-oxadiazole] | 0.024 | 0.026
5 | COc1ccc(COc2ccc(Cn3cnc4cc(-c5noc(C6CCNCC6)n5)ccc43)cc2OC)cn1 [Ex. 3-22, 3-(1-(3-Methoxy-4-((6-methoxypyridin-3-yl)methoxy)benzyl)-1H-benzo[d]imidazol-5-yl)-5-(piperidin-4-yl)-1,2,4-oxadiazole] | 0.317 | 0.306
6 | COc1ccc(COc2ccc(Cn3cnc4cc(-c5nnc(C6CCNCC6)o5)cnc43)cc2OC)cn1 [Ex. 3-23, 2-(3-(3-Methoxy-4-((6-methoxypyridin-3-yl)methoxy)benzyl)-3H-imidazo[4,5-b]pyridin-6-yl)-5-(piperidin-4-yl)-1,3,4-oxadiazole] | 0.057 | 0.051
7 | COc1ccc(COc2ccc(Cn3cnc4cc(-n5cc(C(C)(C)N)nn5)cnc43)cc2OC)cn1 [Ex. 3-24, 2-(1-(3-(3-Methoxy-4-((6-methoxypyridin-3-yl)methoxy)benzyl)-3H-imidazo[4,5-b]pyridin-6-yl)-1H-1,2,3-triazol-4-yl)propan-2-amine] | 0.043 | 0.088
8 | COc1ccc(COc2ccc(Cn3cnc4cc(-n5cc(C6CCCNC6)nn5)cnc43)cc2OC)cn1 (stereo not drawn) [Ex. 3-25, 3-(3-Methoxy-4-((6-methoxypyridin-3-yl)methoxy)benzyl)-6-(4-(piperidin-3-yl)-1H-1,2,3-triazol-1-yl)-3H-imidazo[4,5-b]pyridine] | 0.018 | 0.032
9 | COc1ccc(COc2ccc(Cn3c(N)nc4cc(N5CCN(C)CC5)ccc43)cc2OC)cn1 [Ex. 3-26, 1-(3-methoxy-4-((6-methoxypyridin-3-yl)methoxy)benzyl)-5-(4-methylpiperazin-1-yl)-1H-benzo[d]imidazol-2-amine] | 0.315 | 0.59
10 | COc1ccc(COc2cc(F)c(Cn3cnc4cc(N5CCN(C)CC5)ccc43)cc2OC)cn1 [Ex. 3-27, 1-(2-fluoro-5-methoxy-4-((6-methoxypyridin-3-yl)methoxy)benzyl)-5-(4-methylpiperazin-1-yl)-1H-benzo[d]imidazole] | 0.305 | 0.852
11 | COc1ccc(COc2ccc(Cn3cnc4cc(N5CCN(C)CC5=O)ccc43)cc2OC)cn1 [Ex. 3-29, 1-(1-(3-Methoxy-4-((6-methoxypyridin-3-yl)methoxy)benzyl)-1H-benzo[d]imidazol-5-yl)-4-methylpiperazin-2-one] | 4.28 | 6.02
12 | COc1ccc(COc2ccc(Cn3cnc4cc(C5=CC6(C)CCCN5C6)cnc43)cc2OC)cn1 (stereo not drawn) [Ex. 3-30, 3-(3-Methoxy-4-((6-methoxypyridin-3-yl)methoxy)benzyl)-6-(5-methyl-1-azabicyclo[3.2.1]oct-6-en-7-yl)-3H-imidazo[4,5-b]pyridine] | 0.118 | 0.201
